Measured values: publication PMC9851200, “Multiparameter phenotypic screening for endogenous TFEB and TFE3 translocation identifies novel chemical series modulating lysosome function” (Autophagy, 2022)

How the values were obtained:
[1] = system: endogenous TFE3; test: TFE3 nuclear translocation, immunocytochemistry high-content imaging; format: cell-based; conditions: for TFE3 %: PKIS2 primary screening; for nTFE3 %: primary screen, 1 µM, 24 h, SH-SY5Y
[2] = system: SH-SY5Y cells; conditions: PKIS2 primary screening; for DQ Intensity: DQ Red BSA intensity; for DQ Spot: DQ Red BSA spot count; for all read-outs here: reference of the scale not given here
[3] = molecular target: T1, PRKD1 (Homo sapiens, UniProt Q15139); conditions: cited from earlier work
T1 sequence (Q15139 1-912): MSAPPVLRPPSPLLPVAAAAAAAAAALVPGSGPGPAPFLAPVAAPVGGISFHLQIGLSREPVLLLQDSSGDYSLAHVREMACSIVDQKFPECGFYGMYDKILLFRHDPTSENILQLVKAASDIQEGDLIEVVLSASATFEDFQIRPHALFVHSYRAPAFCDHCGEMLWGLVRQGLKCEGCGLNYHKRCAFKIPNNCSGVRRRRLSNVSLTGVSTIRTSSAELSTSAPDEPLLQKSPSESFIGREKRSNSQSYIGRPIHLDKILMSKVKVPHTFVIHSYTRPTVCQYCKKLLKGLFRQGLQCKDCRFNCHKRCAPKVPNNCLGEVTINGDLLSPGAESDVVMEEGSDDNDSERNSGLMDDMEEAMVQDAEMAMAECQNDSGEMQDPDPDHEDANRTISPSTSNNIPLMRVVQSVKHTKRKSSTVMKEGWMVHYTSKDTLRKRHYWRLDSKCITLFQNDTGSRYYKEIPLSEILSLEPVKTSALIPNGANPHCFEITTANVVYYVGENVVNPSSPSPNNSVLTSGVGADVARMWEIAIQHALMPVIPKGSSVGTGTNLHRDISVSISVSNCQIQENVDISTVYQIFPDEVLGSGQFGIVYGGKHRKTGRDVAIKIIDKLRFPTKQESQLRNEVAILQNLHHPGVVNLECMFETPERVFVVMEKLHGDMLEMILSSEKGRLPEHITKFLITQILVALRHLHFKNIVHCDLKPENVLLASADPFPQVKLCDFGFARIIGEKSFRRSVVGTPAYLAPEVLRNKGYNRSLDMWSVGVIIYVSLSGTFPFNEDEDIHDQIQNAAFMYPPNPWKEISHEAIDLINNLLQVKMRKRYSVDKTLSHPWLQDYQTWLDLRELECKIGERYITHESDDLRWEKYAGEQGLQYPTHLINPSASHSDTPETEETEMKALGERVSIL

[4] = molecular target: CDC42BPB/MRCKB (Homo sapiens, UniProt Q9Y5S2); conditions: cited from earlier work
CDC42BPB/MRCKB, sequence (Q9Y5S2 whole entry): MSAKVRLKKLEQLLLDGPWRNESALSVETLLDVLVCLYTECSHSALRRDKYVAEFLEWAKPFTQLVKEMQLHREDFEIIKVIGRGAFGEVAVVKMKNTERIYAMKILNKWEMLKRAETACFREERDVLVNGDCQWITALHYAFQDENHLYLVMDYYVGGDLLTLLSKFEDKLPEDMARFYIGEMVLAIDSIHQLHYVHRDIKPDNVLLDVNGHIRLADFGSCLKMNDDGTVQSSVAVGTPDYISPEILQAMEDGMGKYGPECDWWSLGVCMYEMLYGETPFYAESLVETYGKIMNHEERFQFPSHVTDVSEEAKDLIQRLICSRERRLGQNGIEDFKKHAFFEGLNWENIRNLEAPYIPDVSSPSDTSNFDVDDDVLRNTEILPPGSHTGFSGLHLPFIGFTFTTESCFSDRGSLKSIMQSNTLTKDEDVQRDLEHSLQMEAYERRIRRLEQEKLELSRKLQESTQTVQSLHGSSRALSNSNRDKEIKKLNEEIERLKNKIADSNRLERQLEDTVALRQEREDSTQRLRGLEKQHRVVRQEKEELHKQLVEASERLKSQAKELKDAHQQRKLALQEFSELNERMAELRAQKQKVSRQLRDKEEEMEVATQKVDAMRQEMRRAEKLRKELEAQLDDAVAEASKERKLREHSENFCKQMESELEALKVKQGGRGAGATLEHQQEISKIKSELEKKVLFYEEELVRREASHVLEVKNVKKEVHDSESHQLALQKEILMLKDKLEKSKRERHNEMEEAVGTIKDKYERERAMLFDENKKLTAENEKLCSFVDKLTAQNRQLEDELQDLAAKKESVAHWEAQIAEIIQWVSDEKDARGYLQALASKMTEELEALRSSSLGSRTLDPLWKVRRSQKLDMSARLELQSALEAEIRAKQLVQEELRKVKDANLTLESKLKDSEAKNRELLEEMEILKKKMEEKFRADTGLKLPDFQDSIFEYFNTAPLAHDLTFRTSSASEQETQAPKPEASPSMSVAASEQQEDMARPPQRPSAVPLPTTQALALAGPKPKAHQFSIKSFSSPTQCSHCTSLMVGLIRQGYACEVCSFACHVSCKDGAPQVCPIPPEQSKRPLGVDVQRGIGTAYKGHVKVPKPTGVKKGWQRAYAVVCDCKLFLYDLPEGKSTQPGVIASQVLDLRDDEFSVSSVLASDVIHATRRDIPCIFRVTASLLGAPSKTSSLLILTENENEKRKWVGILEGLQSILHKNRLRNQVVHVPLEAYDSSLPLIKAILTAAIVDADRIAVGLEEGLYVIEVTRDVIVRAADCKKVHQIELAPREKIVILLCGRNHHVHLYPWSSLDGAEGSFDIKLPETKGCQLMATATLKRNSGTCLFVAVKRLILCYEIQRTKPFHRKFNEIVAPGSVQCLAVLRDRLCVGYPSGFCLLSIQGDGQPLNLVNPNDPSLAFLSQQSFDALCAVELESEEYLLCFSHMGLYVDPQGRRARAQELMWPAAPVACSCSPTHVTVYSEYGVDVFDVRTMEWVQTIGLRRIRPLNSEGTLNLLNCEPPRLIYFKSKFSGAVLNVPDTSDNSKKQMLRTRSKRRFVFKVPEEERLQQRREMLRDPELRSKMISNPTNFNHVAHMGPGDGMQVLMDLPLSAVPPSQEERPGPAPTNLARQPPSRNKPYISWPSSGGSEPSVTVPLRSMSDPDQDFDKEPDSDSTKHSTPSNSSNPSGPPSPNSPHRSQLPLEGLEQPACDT

[5] = molecular target: CIT (Homo sapiens, UniProt O14578); conditions: cited from earlier work
[6] = molecular target: T2, ACVR1B (Homo sapiens, UniProt P36896); conditions: cited from earlier work
T2 sequence (P36896 24-505): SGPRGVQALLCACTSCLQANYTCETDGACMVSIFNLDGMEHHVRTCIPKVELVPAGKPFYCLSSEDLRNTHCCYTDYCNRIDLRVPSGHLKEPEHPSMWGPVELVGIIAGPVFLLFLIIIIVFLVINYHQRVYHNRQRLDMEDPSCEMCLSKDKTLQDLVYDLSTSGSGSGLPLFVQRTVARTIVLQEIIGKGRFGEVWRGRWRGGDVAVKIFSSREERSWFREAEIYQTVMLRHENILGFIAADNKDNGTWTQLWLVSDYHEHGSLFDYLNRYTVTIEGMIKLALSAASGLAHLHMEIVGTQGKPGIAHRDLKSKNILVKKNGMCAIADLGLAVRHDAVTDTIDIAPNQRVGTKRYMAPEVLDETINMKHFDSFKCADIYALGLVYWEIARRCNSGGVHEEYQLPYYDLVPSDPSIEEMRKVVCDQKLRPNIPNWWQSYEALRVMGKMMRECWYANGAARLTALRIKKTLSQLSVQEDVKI

[7] = molecular target: CSNK1E (Homo sapiens, UniProt P49674); conditions: cited from earlier work
CSNK1E, sequence (P49674 whole entry): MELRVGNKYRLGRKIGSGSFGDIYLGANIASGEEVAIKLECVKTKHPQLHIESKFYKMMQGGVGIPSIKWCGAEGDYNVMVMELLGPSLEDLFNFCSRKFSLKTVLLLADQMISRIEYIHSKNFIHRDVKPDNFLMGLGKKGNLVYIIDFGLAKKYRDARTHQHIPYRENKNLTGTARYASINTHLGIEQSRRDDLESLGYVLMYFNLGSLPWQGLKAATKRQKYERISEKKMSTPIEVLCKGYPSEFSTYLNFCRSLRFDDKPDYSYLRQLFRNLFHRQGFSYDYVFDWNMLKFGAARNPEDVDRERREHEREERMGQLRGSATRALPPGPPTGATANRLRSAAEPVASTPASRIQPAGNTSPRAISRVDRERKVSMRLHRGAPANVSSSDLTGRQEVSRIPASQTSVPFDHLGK

[8] = molecular target: T3, PRKD3 (Homo sapiens, UniProt O94806); conditions: cited from earlier work
T3 sequence (O94806 1-890): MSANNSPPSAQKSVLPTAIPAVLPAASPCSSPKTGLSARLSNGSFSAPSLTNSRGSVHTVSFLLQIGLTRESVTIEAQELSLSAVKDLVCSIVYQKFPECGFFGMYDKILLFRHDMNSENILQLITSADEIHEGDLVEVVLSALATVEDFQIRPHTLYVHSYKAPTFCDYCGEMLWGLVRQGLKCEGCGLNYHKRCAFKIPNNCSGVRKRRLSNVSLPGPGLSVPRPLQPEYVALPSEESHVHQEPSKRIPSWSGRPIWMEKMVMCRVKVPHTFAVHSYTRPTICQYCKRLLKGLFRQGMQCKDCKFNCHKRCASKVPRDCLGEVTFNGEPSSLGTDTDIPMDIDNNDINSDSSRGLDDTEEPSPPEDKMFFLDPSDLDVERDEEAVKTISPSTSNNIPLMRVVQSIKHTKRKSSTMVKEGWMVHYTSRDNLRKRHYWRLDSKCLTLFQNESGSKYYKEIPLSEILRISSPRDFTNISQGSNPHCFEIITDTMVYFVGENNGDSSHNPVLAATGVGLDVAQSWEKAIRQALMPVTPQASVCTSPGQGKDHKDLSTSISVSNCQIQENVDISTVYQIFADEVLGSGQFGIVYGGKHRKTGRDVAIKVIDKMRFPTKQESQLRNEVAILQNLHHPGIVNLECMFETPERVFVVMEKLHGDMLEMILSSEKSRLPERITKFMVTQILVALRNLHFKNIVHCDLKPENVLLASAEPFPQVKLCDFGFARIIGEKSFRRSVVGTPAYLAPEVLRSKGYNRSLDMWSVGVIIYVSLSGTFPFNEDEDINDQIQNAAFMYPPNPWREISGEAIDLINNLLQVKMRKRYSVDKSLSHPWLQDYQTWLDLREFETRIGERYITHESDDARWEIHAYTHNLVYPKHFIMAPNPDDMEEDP

[9] = molecular target: CSNK1D (Homo sapiens, UniProt P48730); conditions: cited from earlier work
CSNK1D, sequence (P48730 whole entry): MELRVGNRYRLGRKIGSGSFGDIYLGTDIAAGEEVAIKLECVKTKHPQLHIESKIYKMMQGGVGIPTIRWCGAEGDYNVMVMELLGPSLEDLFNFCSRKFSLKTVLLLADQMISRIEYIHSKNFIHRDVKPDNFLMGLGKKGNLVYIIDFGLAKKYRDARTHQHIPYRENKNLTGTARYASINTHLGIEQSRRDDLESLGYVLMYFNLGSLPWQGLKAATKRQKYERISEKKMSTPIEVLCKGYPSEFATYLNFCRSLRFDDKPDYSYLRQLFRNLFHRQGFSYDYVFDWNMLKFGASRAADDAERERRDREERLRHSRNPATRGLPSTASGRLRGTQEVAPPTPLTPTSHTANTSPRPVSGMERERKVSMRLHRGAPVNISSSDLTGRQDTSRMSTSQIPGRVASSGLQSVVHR

[10] = molecular target: PIKFYVE (Homo sapiens, UniProt Q9Y2I7); conditions: cited from earlier work
PIKFYVE, sequence (Q9Y2I7 whole entry): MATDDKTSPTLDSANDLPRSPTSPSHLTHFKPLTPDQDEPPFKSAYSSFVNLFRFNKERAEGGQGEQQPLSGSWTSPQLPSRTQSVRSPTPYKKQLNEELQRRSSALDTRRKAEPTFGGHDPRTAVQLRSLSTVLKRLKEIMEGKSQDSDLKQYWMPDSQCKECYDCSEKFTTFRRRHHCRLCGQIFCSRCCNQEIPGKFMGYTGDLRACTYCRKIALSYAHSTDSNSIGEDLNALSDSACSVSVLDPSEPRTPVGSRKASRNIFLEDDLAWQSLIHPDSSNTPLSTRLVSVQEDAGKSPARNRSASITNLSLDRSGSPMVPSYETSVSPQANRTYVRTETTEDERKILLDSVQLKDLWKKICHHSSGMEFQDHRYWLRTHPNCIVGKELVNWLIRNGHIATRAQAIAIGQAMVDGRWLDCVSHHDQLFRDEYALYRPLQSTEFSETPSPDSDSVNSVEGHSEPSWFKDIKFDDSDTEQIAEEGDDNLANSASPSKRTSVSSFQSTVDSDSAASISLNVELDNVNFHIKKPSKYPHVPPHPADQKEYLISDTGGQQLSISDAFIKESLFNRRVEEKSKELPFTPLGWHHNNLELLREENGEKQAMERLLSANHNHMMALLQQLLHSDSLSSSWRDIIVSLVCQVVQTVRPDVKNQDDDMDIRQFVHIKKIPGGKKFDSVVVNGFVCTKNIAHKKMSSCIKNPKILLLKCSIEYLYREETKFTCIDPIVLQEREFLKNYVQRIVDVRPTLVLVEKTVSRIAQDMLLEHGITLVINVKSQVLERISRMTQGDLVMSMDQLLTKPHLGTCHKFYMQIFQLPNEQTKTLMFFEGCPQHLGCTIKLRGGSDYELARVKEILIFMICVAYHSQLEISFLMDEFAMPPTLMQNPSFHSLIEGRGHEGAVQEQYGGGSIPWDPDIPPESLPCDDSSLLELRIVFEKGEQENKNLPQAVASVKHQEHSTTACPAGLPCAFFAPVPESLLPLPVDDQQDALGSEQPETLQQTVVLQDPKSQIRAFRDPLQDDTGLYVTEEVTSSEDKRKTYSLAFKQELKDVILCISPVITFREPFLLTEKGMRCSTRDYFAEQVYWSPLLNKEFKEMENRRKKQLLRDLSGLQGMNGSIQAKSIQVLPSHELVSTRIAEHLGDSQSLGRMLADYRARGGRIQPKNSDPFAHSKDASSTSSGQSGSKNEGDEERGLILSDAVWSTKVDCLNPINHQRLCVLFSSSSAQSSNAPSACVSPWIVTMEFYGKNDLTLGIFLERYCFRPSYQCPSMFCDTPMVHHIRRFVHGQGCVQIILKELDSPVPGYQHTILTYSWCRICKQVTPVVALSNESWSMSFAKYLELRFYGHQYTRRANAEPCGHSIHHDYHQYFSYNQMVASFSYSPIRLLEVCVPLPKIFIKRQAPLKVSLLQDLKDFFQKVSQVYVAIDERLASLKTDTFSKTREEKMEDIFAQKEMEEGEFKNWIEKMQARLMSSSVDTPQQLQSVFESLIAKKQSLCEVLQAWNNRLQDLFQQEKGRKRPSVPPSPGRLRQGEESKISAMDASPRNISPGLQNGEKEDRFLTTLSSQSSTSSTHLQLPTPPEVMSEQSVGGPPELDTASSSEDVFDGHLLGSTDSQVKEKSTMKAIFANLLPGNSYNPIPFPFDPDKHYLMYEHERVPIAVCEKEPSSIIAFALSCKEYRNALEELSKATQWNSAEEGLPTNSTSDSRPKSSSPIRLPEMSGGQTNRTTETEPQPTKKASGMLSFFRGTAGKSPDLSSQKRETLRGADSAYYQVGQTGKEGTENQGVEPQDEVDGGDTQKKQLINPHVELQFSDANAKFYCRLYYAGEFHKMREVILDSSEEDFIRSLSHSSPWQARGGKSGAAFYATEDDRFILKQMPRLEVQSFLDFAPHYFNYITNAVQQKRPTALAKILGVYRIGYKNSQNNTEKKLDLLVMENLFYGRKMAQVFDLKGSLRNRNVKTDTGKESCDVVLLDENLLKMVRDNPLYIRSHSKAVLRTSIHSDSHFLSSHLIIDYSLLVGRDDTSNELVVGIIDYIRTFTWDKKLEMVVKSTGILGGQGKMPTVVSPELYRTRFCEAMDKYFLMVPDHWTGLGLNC

[11] = molecular target: BMPR1B (Homo sapiens, UniProt O00238); conditions: cited from earlier work
BMPR1B, sequence (O00238 14-502): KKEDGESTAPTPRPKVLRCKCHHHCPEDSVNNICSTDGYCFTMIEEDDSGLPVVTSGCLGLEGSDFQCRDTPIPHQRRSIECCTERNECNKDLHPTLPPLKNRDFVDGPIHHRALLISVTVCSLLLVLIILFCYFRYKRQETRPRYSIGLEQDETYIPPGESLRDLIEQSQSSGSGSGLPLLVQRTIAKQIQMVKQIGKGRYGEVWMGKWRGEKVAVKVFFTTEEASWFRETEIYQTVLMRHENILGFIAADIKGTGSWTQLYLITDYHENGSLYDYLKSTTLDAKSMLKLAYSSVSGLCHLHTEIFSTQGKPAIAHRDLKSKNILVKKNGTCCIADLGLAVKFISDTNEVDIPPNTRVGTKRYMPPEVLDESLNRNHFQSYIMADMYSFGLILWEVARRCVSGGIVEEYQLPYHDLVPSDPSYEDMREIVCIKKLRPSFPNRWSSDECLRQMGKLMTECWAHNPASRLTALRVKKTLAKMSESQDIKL

[12] = molecular target: MTOR (Homo sapiens, UniProt P42345); conditions: cited from earlier work
[13] = system: SH-SY5Y cells; test: AK (adenylate kinase) release ToxiLight cytotoxicity assay; conditions: PKIS2 primary screening; note: reference of the scale not given here
[14] = system: SH-SY5Y cells; test: Nuclear count from microscopy images (cellular growth and toxicity); conditions: PKIS2 primary screening; note: reference of the scale not given here

Row | Structure (SMILES) | TFE3 % [1] | nTFE3 % [1] | DQ Intensity [2] | DQ Spot [2] | KINOMEscan binding PRKD1 [3] | KINOMEscan binding CDC42BPB/MRCKB [4] | KINOMEscan binding CIT [5] | KINOMEscan binding ACVR1B [6] | KINOMEscan binding CSNK1E [7] | KINOMEscan binding PRKD3 [8] | KINOMEscan binding CSNK1D [9] | KINOMEscan binding PIKFYVE [10] | KINOMEscan binding BMPR1B [11] | KINOMEscan binding MTOR [12] | AK [13] | Nuclear Count [14]
1 | Cc1cccc(-c2nc(Nc3ccc4nn[nH]c4c3)c3ccccc3n2)n1 [GW867587] | 12.03% | 12% | 114.16 | 102.41 | 94.2% | 2% | 15% | 0% | 0% | 66% | 4% | 13% | 0% | 5% | 54.27 | 123.89
2 | Cc1cccc(-c2nc(Nc3ccc4ncsc4c3)c3ccccc3n2)n1 [GW867588] | 18.78% | 18.7% | 95.27 | 103.18 | 98.7% | 33% | 13% | 35% | 6% | 66% | 0% | 54% | 0% | 0% | 60.47 | 62.46
3 | Cc1csc(-c2nc(Nc3ccncc3)c3ccccc3n2)n1 [GW869640] | 13.20% | 13% | 86.86 | 102.29 | 69% | 44% | 61% | 94.7% | 41% | 71% | 46% | 78% | 42% | 74% | 59.35 | 81.77
4 | Cc1cccc(-c2nc(Nc3ccncc3)c3sccc3n2)n1 [GW869641] | 6.93% | 6.9% | 90.97 | 102.97 | 99.3% | 98.5% | 96.6% | 96.5% | 94.9% | 90.7% | 90% | 86% | 82% | 75% | 80.75 | 70.17
5 | Cc1cc(Nc2nc(-c3cccc(C)n3)nc3ccccc23)ccn1 [GW872411] | 20.21% | 20.2% | 103.32 | 114.14 | 99.4% | 0% | 0% | 73% | 31% | 76% | 35% | 53% | 0% | 73% | 69.93 | 94.17
6 | Clc1cccc(-c2nc(Nc3ccncc3)c3ccccc3n2)c1 [GW873004] | 19.51% | 19.5% | 102.26 | 118.51 | 47% | 42% | 57% | 72% | 23% | 44% | 12% | 61% | 4% | 36% | 129.21 | 66.61
7 | Cc1cccc(-c2nc(Nc3cccc(C(N)=O)c3)c3ccccc3n2)n1 [GW876019] | 17.52% | 17.5% | 115.76 | 107.41 | 64% | 32% | 45% | 83% | 15% | 87% | 8% | 16% | 0% | 35% | 199.56 | 75.33
8 | Cc1cccc(-c2nc(Nc3ccc4c(cnn4C)c3)c3ccccc3n2)n1 [GW876731] | 20.31% | 20.3% | 96.16 | 100.57 | 99.2% | 34% | 12% | 64% | 37% | 90.2% | 50% | 91.5% | 0% | 0% | 73.05 | 107.18
